Key:
PARIS, PGC-1α [1] = assay: Western blotting of hind limb muscles, high fat diet for 3 months; type: in vivo, mouse; conditions: high fat diet with 0.5% compound
Source text: (§1) To prepare the PGC-1α-inhibited model, 3-month-old mouse (female, body weight of 20 g) is fed with high fat diet, in which fat is increased to 60%, compared to a negative control group, for 5 days (short-term effect) or 3 months (long-term effect). The negative control group is fed with a general diet. Farnesol is mixed in the high fat diet at a content of 0.5% (weight of farnesol/weight of diet). A positive control group is fed with high fat diet containing a type II diabetes drug, metformin at a content of 0.5% (weight of metformin/weight of diet). Mice are fed with the general diet, the high fat diet, and the high fat diet containing farnesol or metformin for 3 months, and then hind limbs are removed to analyze muscle differentiation and mitochondrial enzyme activity.

PARIS, PGC-1α [2] = assay: Immunoprecipitation for PGC-1α expression and PARIS-farnesylation, short-term high fat diet; type: in vivo, mouse; conditions: high fat diet with 0.5% compound, 5 days, gastrocnemius muscles
Source text: as §1
The effects of high fat diet and farnesol and metformin on PGC-1α induction by PARIS-farnesylation are evaluated. To analyze effect of short-term high fat diet, mice are fed with the above conditions for 5 days. Immunoblotting of PGC-1α and PARIS in gastrocnemius muscles of the mice is performed.
In this regard, PARIS-farnesylation is normalized to the immunoprecipitated PARIS expression level.

[3] = test system: fibrosis-related genes Col1 A1, Col A3, TGF-β, Timp2; assay: qRT-PCR of fibrosis-related genes in extensor digitorum longus muscles; type: in vivo, mouse; conditions: 22-month-old mice, farnesol diet 4 months
Procedure: In muscle aging, fibrosis is closely related to a reduction in regenerative capacity and a reduction in quality of muscle. 22-month-old female mice (weighing 30 g) are fed with a control diet or a farnesol-containing diet for 4 months. Other feeding conditions are the same as described in Section 2 of Example 1. Thereafter, expressions of fibrosis-related genes, collagen 1 A1 (Col1 A1), collagen A3(Col A3), TGF-β, and Timp2 in extensor digitorum longus muscles are analyzed by qRT-PCR (quantitative Real Time-polymerase chain reaction) (primer sets of SEQ ID NOS: 1 and 2, 3 and 4, 5 and 6, 7 and 8 are used).

[4] = test system: PARIS-overexpressing C2C12 cells; assay: Differentiation of PARIS-overexpressing myoblasts (Myh immunostaining); type: cell-based
Procedure: In C2C12 myoblasts, a PARIS gene expression vector (pCMV-Tag2A, Stratagene) is transiently expressed, followed by immunoblotting and immunostaining analysis. PARIS gene is a full length cDNA of human PARIS gene having a nucleotide sequence of SEQ ID NO: 9. […] After induction of differentiation of PARIS-overexpressing C2C12 cells for 3 days, immunostaining for Myh expression is performed. To induce the differentiation, cells are cultured in DMEM containing 2% horse serum and 0.1 μM farnesol dissolved in DMSO for 48 hours. A control group is cultured in the same manner as above, except that only DMSO is added. Other culture conditions are the same as those described in Section 1 of Example 2. As shown in panel (A) of FIG. 4F, PARIS overexpression decreases Myh-positive myotube formation, and reduced myotube formation is recovered by farnesol treatment. In (A) of FIG. 4F, Control represents myoblasts introduced with no PARIS gene expression vector, and ‘PARIS’ represents myoblasts introduced with a PARIS gene expression vector. In these experiments, blue color staining indicates nuclei, and red color staining indicates stained myh and also myotubes. The colors are not shown in panel (A) of FIG. 4F, but the difference in the relative amount of red color stained area is quantified in panel (B) of FIG. 4F, wherein pCMV represents the control myoblasts without a PARIS gene expression vector. […]

[5] = cited from earlier work
[6] = test system: fibrosis-related genes TGF-β, Col A1, collagen A3, Timp2; assay: qRT-PCR of fibrosis-related genes in injured tibialis anterior muscle; type: in vivo; conditions: old mouse, CTX injury
Procedure: 25-month-old mice are fed with a control diet or a farnesol-containing diet for 2 weeks, and then 2 ul of 10 uM cardiotoxin (CTX) per body weight (g) is directly injected into the muscle to induce muscle injury. After 4 days, muscles are frozen and sectioned, followed by histological staining.
In addition, expressions of fibrosis-related genes, TGF-β, Col A1, collagen A3, and Timp2 in tibialis anterior muscle are analyzed by qRT-PCR as described above.

[7] = test system: lower limb muscles (GAS, SOL, EDL, TA); assay: Observation of lower limb muscles of mice administered with farnesol; type: in vivo, mouse; conditions: mice fed with farnesol for 5 weeks
Procedure: 5 month-old C57BL/6 male mice (weighing 22 g) are maintained at a temperature of 22±2° C., humidity of 55±5%, and a light-dark cycle of 12:12 hours. An animal feed containing 0.5% w/w farnesol was supplied by Jung-Ang Lab Animal Inc. A control group is fed with a feed equivalent to a general feed for experimental animals, excluding that no 0.5% w/w farnesol is contained. They are allowed free access to drinking water. Skeletal muscles were separated from the mice and control mouse fed with farnesol for 5 weeks, and subjected to immunoblot analysis. In all the following Examples, administration or feeding of mouse is performed as above, unless otherwise mentioned. […] In this specification, assuming that human life expectancy of 100 years corresponds to mouse life expectancy of 3 years, human life expectancy is estimated from the relationship. […] Herein, GAS indicates gastrocnemius muscle, SOL indicates soleus muscle, EDL indicates extensor digitorum longus muscle, and TA indicates tibialis anterior muscle. Gastrocnemius muscle exists as a white muscle because glycolytic muscle fibers are mainly distributed therein.

For `CC(C)=CCC/C(C)=C/CC/C(C)=C/CO` [farnesol, (2E,6E)-3,7,11-trimethyldodeca-2,6,10-trien-1-ol], the “decreased PGC-1α expression by high fat diet” value (PARIS, PGC-1α [1]) was “inhibited”, the “increased PARIS level by high fat diet” value (PARIS, PGC-1α [1]) was “inhibited” and the “reduction in PARIS-farnesylation by high fat diet” value (PARIS, PGC-1α [2]) was “inhibited”. For the same molecule, the “reduction in PGC-1α expression by high fat diet” value (PARIS, PGC-1α [2]) was “inhibited”, the “expressions of fibrosis-related genes in EDL” value [3] was “remarkably reduced” and the “red color (Myh) stained area, control cells without PARIS vector” value ([4]; CONTROL (pCMV) C2C12, 0.1 μM farnesol vs DMSO) was “‘CONTROL’ cell treated with DMSO is smaller than that of ‘CONTROL’ cell treated with Farnesol”. For the same molecule, the “Myh-positive myotube formation reduced by PARIS overexpression” value ([4]; PARIS-overexpressing C2C12, 0.1 μM farnesol) was “recovered”, the “lethal dose (LD) for 50% mouse mortality” value [5] was 8,765 mg per mouse body weight (kg) and the “expressions of fibrosis-related genes in injured tibialis anterior muscle” value [6] was “significantly reduced”. The “muscle fibers of gastrocnemius, soleus, extensor digitorum longus and tibialis anterior muscle (appearance)” value [7] was “converted to red muscles having a high percentage of oxidative muscle fibers”.
